This note sets out measurements from PubChem BioAssay (NCI).

Molecules are shown by their SMILES.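 Tested at 5 concentrations; 48 h exposure; 96-well plates; endpoints linearly interpolated, else capped at highest concentration. GI50: concentration for 50% inhibition of growth. TGI denotes the concentration required for complete inhibition of growth.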

Some test systems named below: OVCAR-4 ovarian; SK-OV-3 ovarian; SF-539 CNS; MOLT-4 leukemia; SK-MEL-28 melanoma; PC-3 prostate; 786-0 renal; MDA-MB-435; A549 NSCLC; NCI-H460 lung.
What all share (assay): inhibition of tumour cell growth, NCI panel, 48 h

For the compound `CCC(C)C(=O)O[C@H]1C(=O)O[C@@H]2C[C@H]3C(C)=CC(=O)[C@@H](O)[C@]3(C)[C@H]3[C@@H](O)[C@H](O)[C@@]4(C)OC[C@]32[C@@H]14` (stereo not given in full), the TGI with OVCAR-4 ovarian was under 0.01 µM; in the assay on SK-OV-3 ovarian, 0.58 µM; in the assay with SF-539 CNS, 0.0334 µM; in the assay on MOLT-4 leukemia, 0.267 µM; with SK-MEL-28 melanoma, 0.542 µM; in the assay with PC-3 prostate, 0.0143 µM. In addition, the TGI is 0.645 µM in the assay with 786-0 renal, under 0.01 µM with MDA-MB-435, 10.7 µM in the assay on A549 NSCLC and under 0.0185 µM with NCI-H460 lung.
Turning to `O=C(CN1CCN(CCN2C(=O)c3cccc4cccc(c34)C2=O)CC1)Nc1ccc2ncsc2c1`, the GI50 was 11.3 µM in the assay on OVCAR-4 ovarian; 8.35 µM in the assay on SK-OV-3 ovarian; 6.43 µM in the assay on SF-539 CNS; 2.87 µM in the assay on MOLT-4 leukemia; 11 µM with SK-MEL-28 melanoma; 6.31 µM in the assay on PC-3 prostate. Also, the GI50 in the assay with 786-0 renal is 5.82 µM; in the assay with MDA-MB-435, 5.52 µM; in the assay on A549 NSCLC it was 3.58 µM; with NCI-H460 lung, 3.58 µM. Further, the TGI amounted to 26.5 µM in the assay on OVCAR-4 ovarian; 23.3 µM in the assay on SK-OV-3 ovarian; 20.5 µM in the assay on SF-539 CNS; 15.3 µM with MOLT-4 leukemia; 23.8 µM in the assay with SK-MEL-28 melanoma; 34.6 µM in the assay on PC-3 prostate. Besides, the TGI came to 20.8 µM with 786-0 renal, 20.4 µM in the assay on MDA-MB-435, 15.4 µM in the assay with A549 NSCLC and 14.7 µM with NCI-H460 lung.
In the case of `O=C(Nc1ccn(C2CC(I)C(COC(c3ccccc3)(c3ccccc3)c3ccccc3)O2)c(=O)n1)c1ccccc1` (stereo not given), the TGI was 16.7 µM with OVCAR-4 ovarian; 21.5 µM in the assay with SK-OV-3 ovarian; 18.4 µM with SF-539 CNS; 12.1 µM in the assay with MOLT-4 leukemia; 16.2 µM with SK-MEL-28 melanoma; 20.9 µM with PC-3 prostate. In addition, the TGI amounted to 15.5 µM in the assay on 786-0 renal, 15.7 µM in the assay with MDA-MB-435, 21.5 µM with A549 NSCLC and 14.1 µM in the assay on NCI-H460 lung.
For the compound `c1ccc(COCC[P+](c2ccccc2)(c2ccccc2)c2ccccc2)cc1`, the GI50 with OVCAR-4 ovarian is 0.444 µM; in the assay with SK-OV-3 ovarian, 2.33 µM; in the assay with SF-539 CNS it was 2.4 µM; in the assay on MOLT-4 leukemia, 2.1 µM; with SK-MEL-28 melanoma, 1.59 µM; in the assay with PC-3 prostate, 0.519 µM. Moreover, the GI50 in the assay on 786-0 renal was 3.49 µM; with MDA-MB-435, 0.601 µM; with A549 NSCLC it was 0.584 µM; in the assay with NCI-H460 lung, 1.5 µM. Besides, the TGI in the assay with OVCAR-4 ovarian came out at 12.2 µM; with SK-OV-3 ovarian, 9.93 µM; in the assay on SF-539 CNS, 14.5 µM; in the assay on MOLT-4 leukemia, 12.4 µM; with SK-MEL-28 melanoma, 12.2 µM; with PC-3 prostate, 5.32 µM. The TGI with 786-0 renal was found to be 15.6 µM; in the assay on MDA-MB-435 it was 6.28 µM; with A549 NSCLC it was 10.1 µM; in the assay with NCI-H460 lung, 10.7 µM.
For `CCC(CC)c1cc(N[C@H]2CC[C@H](N)C2)n2nccc2n1`, the GI50 was 0.978 µM in the assay on OVCAR-4 ovarian; 3.44 µM with SK-OV-3 ovarian; 1 µM in the assay with SF-539 CNS; 1.36 µM in the assay on MOLT-4 leukemia; 1.93 µM in the assay with SK-MEL-28 melanoma; 2.43 µM with PC-3 prostate. In addition, the GI50 in the assay on 786-0 renal was 2.22 µM; in the assay on MDA-MB-435, 1.38 µM; with A549 NSCLC it was 0.511 µM; with NCI-H460 lung, 0.358 µM. Also, the TGI in the assay with OVCAR-4 ovarian is 22.8 µM; in the assay on SK-OV-3 ovarian it was over 100 µM; in the assay on SF-539 CNS, 5.07 µM; with MOLT-4 leukemia, over 100 µM; with SK-MEL-28 melanoma it was 5.24 µM; in the assay with PC-3 prostate, over 100 µM. Besides, the TGI in the assay with 786-0 renal is over 100 µM; with MDA-MB-435, 3.76 µM; with A549 NSCLC, over 100 µM; in the assay on NCI-H460 lung it was over 100 µM.
Take `Cc1cc(O[C@@H]2O[C@@H](C)[C@H](O)[C@@H](O)[C@H]2O)c2c3c(c(O[C@@H]4O[C@@H](C)[C@H](O)[C@@H](O)[C@H]4O)cc2c1)C(=O)c1c(O)cccc1C3=O`: the GI50 in the assay on OVCAR-4 ovarian, in the assay on SK-OV-3 ovarian, in the assay on SF-539 CNS, with MOLT-4 leukemia, in the assay on SK-MEL-28 melanoma and in the assay on PC-3 prostate was over 30 µM in each case. The GI50 with 786-0 renal, in the assay with MDA-MB-435, with A549 NSCLC and in the assay with NCI-H460 lung was over 30 µM in each case. In addition, the TGI in the assay on OVCAR-4 ovarian, in the assay with SK-OV-3 ovarian, in the assay with SF-539 CNS, in the assay with MOLT-4 leukemia, with SK-MEL-28 melanoma and with PC-3 prostate was over 30 µM throughout. For the same compound, the TGI with 786-0 renal, with MDA-MB-435, in the assay on A549 NSCLC and in the assay on NCI-H460 lung was over 30 µM each time.
Turning to `CCCCOC(=O)/C=C\C(=O)NC(N)=O`, the GI50 in the assay with OVCAR-4 ovarian is 17.1 µM; in the assay on SK-OV-3 ovarian it was 44.9 µM; in the assay with SF-539 CNS, 24.6 µM; in the assay with MOLT-4 leukemia, 38.3 µM; with SK-MEL-28 melanoma it was 19.1 µM; in the assay on PC-3 prostate it was 25 µM. Also, the GI50 with 786-0 renal was 20.1 µM; in the assay with MDA-MB-435, 24.7 µM; in the assay with A549 NSCLC, 34.3 µM; with NCI-H460 lung it was 31.9 µM. The TGI with OVCAR-4 ovarian is 43.8 µM; with SK-OV-3 ovarian, over 100 µM; with SF-539 CNS it was 70 µM; in the assay with MOLT-4 leukemia it was over 100 µM; in the assay with SK-MEL-28 melanoma it was 42.5 µM; in the assay on PC-3 prostate, 69.7 µM. Moreover, the TGI was 53.1 µM with 786-0 renal, 85 µM in the assay with MDA-MB-435, over 100 µM in the assay with A549 NSCLC and over 100 µM with NCI-H460 lung.
As to `CC(C)(C)[Si](C)(C)OC1[C@@H](O[Si](C)(C)C(C)(C)C)[C@@H](CNC(=O)NC(=O)NC(=O)CCl)O[C@H]1n1cnc2c(NC(=O)Nc3ccccc3)ncnc21` (stereo not given in full), the GI50 in the assay with OVCAR-4 ovarian was 3.31 µM; with SK-OV-3 ovarian, 9.51 µM; in the assay with SF-539 CNS, 8.82 µM; with MOLT-4 leukemia, 1.17 µM; with SK-MEL-28 melanoma it was 8.78 µM; with PC-3 prostate it was 1.1 µM. For the same compound, the GI50 is 1.3 µM in the assay with 786-0 renal, 6.61 µM in the assay with MDA-MB-435, 2.26 µM in the assay on A549 NSCLC and 2.23 µM in the assay on NCI-H460 lung. In addition, the TGI in the assay with OVCAR-4 ovarian turned out to be 10.5 µM; with SK-OV-3 ovarian it was 17.5 µM; in the assay with SF-539 CNS, 16.1 µM; in the assay with MOLT-4 leukemia it was 2.53 µM; in the assay with SK-MEL-28 melanoma, 17.8 µM; with PC-3 prostate, 3.93 µM. Besides, the TGI is 4.76 µM in the assay on 786-0 renal, 17.6 µM in the assay on MDA-MB-435, 8.92 µM in the assay with A549 NSCLC and 12.1 µM in the assay with NCI-H460 lung.
